These results are taken from BindingDB's records for doi:10.1016/0024-3205(83)90740-3 (University of Toronto, 1983).

Several values for one entry are separate records, joined by “and”; a condition that tells them apart may be missing. Equal values may be shown once.

5-hydroxytryptamine receptor 2A, sequence (P14842 whole entry): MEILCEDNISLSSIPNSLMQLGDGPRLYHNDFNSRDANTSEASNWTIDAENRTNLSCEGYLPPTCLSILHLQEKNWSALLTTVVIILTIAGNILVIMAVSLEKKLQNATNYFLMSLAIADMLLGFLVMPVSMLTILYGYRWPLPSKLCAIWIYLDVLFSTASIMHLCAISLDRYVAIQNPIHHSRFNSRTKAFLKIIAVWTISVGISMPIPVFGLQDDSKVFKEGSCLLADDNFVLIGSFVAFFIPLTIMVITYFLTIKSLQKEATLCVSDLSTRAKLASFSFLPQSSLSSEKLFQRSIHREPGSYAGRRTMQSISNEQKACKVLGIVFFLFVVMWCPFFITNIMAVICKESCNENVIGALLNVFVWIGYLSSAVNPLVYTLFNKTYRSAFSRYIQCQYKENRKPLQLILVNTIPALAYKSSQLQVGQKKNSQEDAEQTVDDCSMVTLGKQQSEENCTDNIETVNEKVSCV

This experiment concerns the target 5-hydroxytryptamine receptor 2A (Rattus norvegicus, UniProt P14842).
As for `NCCc1c[nH]c2ccccc12` [1H-indole-3-ethanamine], the inhibitory constant (Ki) (usually the dissociation constant of the complex between target and ligand, obtained from inhibition or displacement) was 2930 nM and 1680 nM and 538 nM. On to `c1ccc2nc(N3CCNCC3)ccc2c1` [2-Piperazin-1-yl-quinoline (Quipazine)], for which the Ki is 575 nM and 226 nM and 100 nM. With `CN(C)CCCSc1ccccc1NC(=O)/C=C/c1ccccc1` [CINANSERIN] the figure was 10.1 nM and 5.45 nM and 4.45 nM.
